System: Phaedon cochleariae
Test: Insecticidal activity against mustard beetles at 10 ug after 24 to 48 hrs
Format: functional

With `CC(C)C[C@@H]1C2=C(O[C@@H](C3=C(O)C(C)(C)C(=O)C(C)(C)C3=O)[C@H]1C(C)C)C(C)(C)C(=O)C(C)(C)C2=O` [ERICIFOLIONE] the Activity was 97%.

Reference: ChEMBL document CHEMBL1144126, “A new insecticidal pyranocyclohexenedione from kunzea ericifolia” (1999)
